Source: patent US11091429B2, “Organic compounds” (Givaudan SA, priority 2012, dated 2021)
Entries after “also recorded” stand apart in the source; their conditions may differ.

Tests used:
[1] = Tasting in strawberry flavoured sugar sweetened yoghurt; conditions: 2 ppm, 1.5% fat yoghurt, 8% sucrose, strawberry flavour 0.015%
[2] = Tasting in strawberry drink; conditions: 2 ppm; 7% sucrose, 0.1% citric acid, strawberry flavour 0.015%
Outline: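 Expert tasters profiled samples for authentic taste, mouthfeel, fullness, saltiness, salivation, umami, sweetness, juiciness, richness, long-lastingness and fattiness. Base: water with 7% sucrose, 0.1% citric acid and a proprietary strawberry flavour at 0.015%.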

[3] = Tasting in UHT sweetened banana flavoured milk; conditions: banana flavour 0.04%
Procedure: UHT Sweetened Banana Flavoured Milk, With Different Fat Levels
In a UHT milk with 0% and 3% fat sweetened with 4% sucrose by weight, flavoured with proprietary banana flavour dosed at 0.04%. C18:2 gaba was added at 0.25 ppm, 0.5 ppm and 1 ppm.
Samples were evaluated by expert tasters. Tasters were asked to describe the samples focusing on authentic taste, mouthfeel, fullness, salivation, sweetness, juiciness, richness, long lastingness and fattiness.

[4] = Test in pear flavoured drink; conditions: 1 ppm; water, 7% sugar (8% elsewhere in the source), 0.1% citric acid, pear flavour 0.025%
[5] = Tasting in yoghurt, cream flavoured; conditions: 2 ppm, cream flavour 0.03%
Procedure: Yoghurt Cream Flavoured, Non-Sweetened and Different Fat Levels
In a Yoghurt containing 0% 1.5% and 3% fat, flavoured with proprietary cream flavour dosed at 0.03%, C18:2-gaba was added at 2 ppm. Samples were evaluated by expert tasters. Tasters were asked to describe the samples focusing on authentic taste, acidity, mouthfeel, fullness, salivation, sweetness, juiciness, richness, long lastingness and fattiness.

[6] = Tasting in mango still beverage, 6% clear mango juice; conditions: 1 ppm; 6% clear mango juice (full juice)
Procedure: Mango Flavoured Still Beverage Containing Different Levels of Juice,
In a Mango flavoured still beverage, sweetened with 8% sucrose and containing 0.1% citric acid and 1%, 4% and 6% clear mango juice flavoured with a proprietary Mango flavour @ 0.05%, C18:2-gaba and C18:2-Pro were added, as such (separate) and in combination.
All samples were evaluated by expert tasters. Tasters were asked to describe the samples focusing on authentic taste, juicy mouthfeel, enhancement, richness, juiciness, long lastingness, salivation, sweetness.
In a Mango-flavoured still beverage, sweetened with 8% sucrose & containing 0.1% citric acid and 6% clear mango juice flavoured with Mango flavour@0.05%, C18:2-gaba and C18:2-Pro were added, as such (separate) and in combination.
Base is water, 8% sucrose, 0.1% citric acid, 6% clear mango juice (full juice), flavoured with Mango flavor, dosed at 0.05%.

[7] = Tasting in beef bouillon base; conditions: 0.5 PPM in beef bouillon base 1.0% salt, 0.5% fat
Procedure: (§1) The following formulations were prepared and tasted by trained panelists.
Beef Bouillon base 1.0% salt, 0.5% fat

[8] = Tasting of chicken filet fried in oil
Procedure: as §1
Differentiator high temperature 100-250 degrees Celsius in a frying in oil process
C18:2 gaba @ 2.0 PPM in 135 gram frying oil (blue band 82% Fat) 450 gram chicken filet 2 minutes high fire and 5 minutes medium fire.

[9] = Tasting in spreadable cheese; conditions: 0.5 PPM in spreadable cheese (Eru)
Procedure: as §1
Samples were prepared and evaluated by expert tasters. Tasters were asked to describe the samples focusing on authentic taste, mouthfeel, fullness, salty-ness, salivation, umami, sweetness, juiciness, richness, long lastingness and fattiness.
Test on “Eru Prestige” Spreadable Cheese
Base is Eru prestige (market product)
Samples were prepared and evaluated by expert tasters. Tasters were asked to describe the samples focusing on authentic taste, mouthfeel, fullness, salivation, salty-ness, umami, sweetness, juiciness, richness, long lastingness and fattiness.

In the case of `CCCCC/C=C\C/C=C\CCCCCCCC(=O)NCCCC(=O)O` [C18:2-gaba], the tasting result [1] is reported as “very creamy and fresh strawberry; also recorded: creamy, fruity authentic strawberry, stronger strawberry, ripe, long lasting, juicy”, the tasting result [2] is reported as “fatty mouthfeel, creamy strawberry, fruity and juicy” and the tasting result ([3]; 0.25 ppm, UHT milk 0% fat) is reported as “fuller banana, more authentic, more sweet”. For the same molecule, the tasting result ([3]; 0.25 ppm, UHT milk 3% fat) was “more authentic, less estery and more round”, the tasting result ([3]; 0.5 ppm, UHT milk 0% fat) was “fuller banana, authentic, creamy and sweet, more mouthfeel” and the tasting result ([3]; 0.5 ppm, UHT milk 3% fat) was “creamy banana”. The tasting result ([3]; 1 ppm, UHT milk 0% fat) was “creamy, creamy banana, sweet aftertaste, more mouthfeel and very longlasting”, the tasting result ([3]; 1 ppm, UHT milk 3% fat) was “creamy long lasting and more authentic and more impact” and the tasting result [4] was “long lasting, juicy and fatty skin like very authentic, like eating the fruit instead of drinking a drink”. For the same molecule, the tasting result ([5]; yoghurt 0% fat) was “less acidic, slight creamy aftertaste”, the tasting result ([5]; yoghurt 1.5% fat) was “very creamy, thick, nice long lasting, whipped cream note” and the tasting result ([5]; yoghurt 3% fat) was “less acidic, much more creamy, very long lasting creamy aftertaste”. The tasting result [6] was “fatty skin-like, very thick juicy, authentic mango, long lasting mango taste, rich”, the tasting result [7] was “Strong, Salty, Umami, mouthfeel” and the “taste of the frying oil” value ([8]; 2.0 PPM in 135 gram frying oil (blue band 82% Fat)) was “more savoury golden brown notes”. The “taste of the chicken” value ([8]; 2.0 PPM in 135 gram frying oil, 450 gram chicken filet, 2 minutes high fire and 5 minutes medium fire) was “more juicy, succulent, lingering more white meat”, the tasting result [9] was “full salty, much more cheese bite, umami, lingering, long lasting” and the tasting result ([9]; listed as C18:2 gaba) was “Full, Salty, cheese bite, more mature”.
